Measurements as given in patent US7622551B2, “Leukocyte stimulating peptides” (POSCO, priority 2004, dated 2009).
Entries after “also recorded” stand apart in the source; their conditions may differ. Where no end group is shown, it is not given here.

Legend:
human neutrophils = assay: Superoxide generation (cytochrome c reduction) in human neutrophils; type: cell-based; conditions: for Superoxide production: 1 μM of peptide, cytochrome c reduction
Method: (§1) Peripheral blood leukocyte concentrates were donated by the Ulsan Red Cross Blood Center (Ulsan, Korea). PBMCs were separated on a Histopaque-1077 gradient. After two washings with HBSS without Ca^2+ and Mg^2+, the PBMCs were suspended in 10% FBS containing RPMI and incubated for 60 min at 37° C. to let the monocytes attach to the culture dish. Cells were washed 5 times with warmed RPMI medium to remove lymphocytes, and then the attached monocytes were collected, as described previously (Bae et al. J. Leukoc. Biol. 1999. 65: 241-248). Human neutrophils were isolated according to standard procedures; i.e., dextran sedimentation, hypotonic lysis of erythrocytes, and using a medium lymphocyte separation gradient, as described previously (Seo et al. J. Immunol. 1997. 158: 1895-1901). Isolated human leukocytes were then used promptly.
We determined superoxide anion generation by measuring cytochrome c reduction using a microtiter 96 well plate ELISA reader (Bio-Tekinstruments, EL312e, Winooski, Vt.) as described previously (Bae et al. Blood. 2001. 97: 2854-2862). Human neutrophils (1×10^6 cells/100 μl of RPMI 1640 medium per well of a 96-well plate) were preincubated with 50 μM of cytochrome c at 37° C. for 1 min and then incubated with the indicated peptide concentrations. Superoxide generation was determined from change in light absorption at 550 nm over 5 minutes at 1 min intervals.

FPR = target: T1, FPR (Homo sapiens, UniProt P21462); assay: [Ca2+]i increase in FPR-expressing RBL-2H3 cells; type: cell-based; conditions: data not shown
T1 construct: expressed in transfected cells; host or cells: RBL-2H3
T1 sequence (P21462 1-350): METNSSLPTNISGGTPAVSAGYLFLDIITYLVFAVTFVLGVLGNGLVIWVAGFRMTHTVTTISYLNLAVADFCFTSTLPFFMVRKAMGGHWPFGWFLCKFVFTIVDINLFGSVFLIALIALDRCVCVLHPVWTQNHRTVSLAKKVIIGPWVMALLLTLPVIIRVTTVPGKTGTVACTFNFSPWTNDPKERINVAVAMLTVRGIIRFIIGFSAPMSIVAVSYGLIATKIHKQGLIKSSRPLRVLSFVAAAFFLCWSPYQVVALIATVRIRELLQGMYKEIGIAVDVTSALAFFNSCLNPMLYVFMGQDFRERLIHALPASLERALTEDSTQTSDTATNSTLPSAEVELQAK
Method: (§2) U937 (human histiocytic lymphoma cells), HL60 (human promyelocytic leukemia cells), Raw 264.7 (mouse macrophage), Jurkat (human acute T cell leukemia), PC12 (rat adrenal pheochromocytoma cells), 3Y1 (Rat embryonic fibroblasts), 3T3L1 (preadipocytes), and NCI-H292 (human mucoepidermoid pulmonary carcinoma cells) were obtained from the American Type Culture Collection (Rockville, Md.) and maintained as recommended. FPR- or FPRL1 expressing RBL-2H3 cells were cultured as described previously (He et al. J. Immunol. 2000. 165: 4598-4605). Cells were maintained at about 1×10^6 cells/ml under standard incubator conditions (humidified atmosphere, 95% air, 5% CO2, at 37° C.). HL60 cells were induced to differentiate into the granulocyte phenotype by adding dimethylsulfoxide (DMSO) (final concentration 1.25%, v/v) for 4 days to the culture medium, as described previously (Itoh et al. Blood. 1998. 92: 1432-1441).
(§3) The level of [Ca^2+]i was determined using Grynkiewicz's method using fura-2/AM (Grynkiewicz et al. J. Biol. Chem. 1985. 260: 3440-3550). Briefly, prepared cells were incubated with 3 μM of fura-2/AM at 37° C. for 50 min in serum-free RPMI 1640 medium under continuous stirring. 2×10^6 cells were aliquoted for each assay in Ca^2+ free Locke's solution (154 mM NaCl, 5.6 mM KCl, 1.2 mM MgCl2, 5 mM HEPES, pH 7.3, 10 mM glucose, and 0.2 mM EGTA). Fluorescence changes were measured at the dual excitation wavelength of 340 nm and 380 nm, and the calculated fluorescence ratio was translated into [Ca^2+]i.

ERK = ERK phosphorylation in dHL60 cells (anti-phospho-ERK immunoblot); type: cell-based, human; conditions: for Phosphorylation level of ERK: dHL60 cells (FIG. 9); for Effect of LY294002 (PI3K) on peptide-induced ERK phosphorylation / Effect of PD98059 (MEK) on peptide-induced ERK phosphorylation / Time of maximal ERK activation after stimulation / Effect of GF109203X (PKC) on peptide-induced ERK phosphorylation: dHL60 cells; for Effect of LY294002 (PI3K) on peptide-induced ERK phosphorylation: LY294002 (50 μM) 15 minutes; for Effect of LY294002 (PI3K) on peptide-induced ERK phosphorylation / Effect of PD98059 (MEK) on peptide-induced ERK phosphorylation / Effect of GF109203X (PKC) on peptide-induced ERK phosphorylation: 1 μM peptide 5 minutes; for Effect of PD98059 (MEK) on peptide-induced ERK phosphorylation: PD98059 (50 μM) 60 minutes; for Time of maximal ERK activation after stimulation: data not shown; for Effect of GF109203X (PKC) on peptide-induced ERK phosphorylation: GF109203X (5 μM) 15 minutes
Method: Each sample (30 μg of protein) was subjected to 8% SDS-PAGE, and phosphorylated ERK was quantified by immunoblot analysis with anti-phospho-ERK antibody. The results shown are from a single experiment representative of at least three independent experiments.
Extracellular signal regulated protein kinase (ERK) is a well-known intracellular enzyme that mediates diverse cellular responses (Sugden et al. Cell Signal. 1997. 9: 337-351). […] To compare the intracellular signaling involving these 4 peptides, dHL60 cells were pretreated either with LY294002 (50 μM), GF109203X (5 μM), or PD98059 (50 μM) or left untreated as a control. After being incubated for the indicated periods (15 minutes for LY294002 and GF109203X, 60 minutes for PD98059), the cells were stimulated with 1 μM of each peptide for 5 minutes.

neutrophils = assay: [Ca2+]i rise in neutrophils; type: cell-based, human; conditions: 10 μM (FIG. 5)
Method: as §1
as §3, with “2×10^6 cells were aliquoted for each assay in Ca^2+ free Locke's solution (154 mM NaCl, 5.6 mM KCl, 1.2 mM MgCl2, 5 mM HEPES, pH 7.3, 10 mM glucose, and 0.2 mM EGTA).” left out

Monocytes = assay: [Ca2+]i rise in monocytes; type: cell-based, human; conditions: 10 μM (FIG. 5)
Method: as §1
as §3, with “2×10^6 cells were aliquoted for each assay in Ca^2+ free Locke's solution (154 mM NaCl, 5.6 mM KCl, 1.2 mM MgCl2, 5 mM HEPES, pH 7.3, 10 mM glucose, and 0.2 mM EGTA).” left out

U937 cells = assay: [Ca2+]i rise in U937 cells; type: cell-based, human; conditions: 10 μM (FIG. 5)
Method: as §2
as §3, with “2×10^6 cells were aliquoted for each assay in Ca^2+ free Locke's solution (154 mM NaCl, 5.6 mM KCl, 1.2 mM MgCl2, 5 mM HEPES, pH 7.3, 10 mM glucose, and 0.2 mM EGTA).” left out

Raw 264.7 = assay: [Ca2+]i rise in Raw 264.7 cells; type: cell-based, mouse; conditions: Raw 264.7, 10 μM (FIG. 5)
Method: as §2
as §3, with “2×10^6 cells were aliquoted for each assay in Ca^2+ free Locke's solution (154 mM NaCl, 5.6 mM KCl, 1.2 mM MgCl2, 5 mM HEPES, pH 7.3, 10 mM glucose, and 0.2 mM EGTA).” left out

Jurkat cells = assay: [Ca2+]i rise in Jurkat cells; type: cell-based, human; conditions: 10 μM (FIG. 5)
Method: as §2
as §3, with “2×10^6 cells were aliquoted for each assay in Ca^2+ free Locke's solution (154 mM NaCl, 5.6 mM KCl, 1.2 mM MgCl2, 5 mM HEPES, pH 7.3, 10 mM glucose, and 0.2 mM EGTA).” left out

3Y1 = assay: [Ca2+]i rise in 3Y1 cells; type: cell-based, Rat; conditions: 3Y1, 10 μM
Method: as §2
as §3, with “2×10^6 cells were aliquoted for each assay in Ca^2+ free Locke's solution (154 mM NaCl, 5.6 mM KCl, 1.2 mM MgCl2, 5 mM HEPES, pH 7.3, 10 mM glucose, and 0.2 mM EGTA).” left out

PC12 = assay: [Ca2+]i rise in PC12 cells; type: cell-based, rat; conditions: PC12, 10 μM
Method: as §2
as §3, with “2×10^6 cells were aliquoted for each assay in Ca^2+ free Locke's solution (154 mM NaCl, 5.6 mM KCl, 1.2 mM MgCl2, 5 mM HEPES, pH 7.3, 10 mM glucose, and 0.2 mM EGTA).” left out

NCI-H292 = assay: [Ca2+]i rise in NCI-H292 cells; type: cell-based, human; conditions: NCI-H292, 10 μM
Method: as §2
as §3, with “2×10^6 cells were aliquoted for each assay in Ca^2+ free Locke's solution (154 mM NaCl, 5.6 mM KCl, 1.2 mM MgCl2, 5 mM HEPES, pH 7.3, 10 mM glucose, and 0.2 mM EGTA).” left out

HUVEC = assay: [Ca2+]i rise in HUVEC; type: cell-based; conditions: 10 μM
Method: as §3

[Ca^2+]i in FPR-expressing RBL-2H3 cells / ligand for FPR (FPR)	Substance	Superoxide generation (in words) (human neutrophils)	Superoxide production (human neutrophils) [nmole/10^6 cells]	Phosphorylation level of ERK (ERK)	Effect of LY294002 (PI3K) on peptide-induced ERK phosphorylation (ERK)	Effect of PD98059 (MEK) on peptide-induced ERK phosphorylation (ERK)	Time of maximal ERK activation after stimulation (ERK) [min]	[Ca^2+]i rise (neutrophils)	[Ca^2+]i rise (Monocytes)	[Ca^2+]i rise (U937 cells)	[Ca^2+]i rise (Raw 264.7)	[Ca^2+]i rise (Jurkat cells)	[Ca^2+]i rise (3Y1)	[Ca^2+]i rise (PC12)	[Ca^2+]i rise (NCI-H292)	[Ca^2+]i rise (HUVEC)	Effect of GF109203X (PKC) on peptide-induced ERK phosphorylation (ERK)
not for FPR	MKYYKM-NH2 [Peptide P21]	stimulate superoxide generation in a concentration-dependent manner	12.7 ± 1.76	dramatic increase	PI3K and MEK-dependency	PI3K and MEK-dependency	5	–	–	–	–	–	–	–	–	–	–
not for FPR	RKYHVM-NH2 [Peptide P14]	stimulate superoxide generation in a concentration-dependent manner	9.3 ± 1.42	dramatic increase	blocked	blocked	5	–	–	–	–	–	–	–	–	–	blocked

Substance	[Ca^2+]i in FPR-expressing RBL-2H3 cells / ligand for FPR (FPR)	Superoxide generation (in words) (human neutrophils)	Superoxide production (human neutrophils) [nmole/10^6 cells]	Phosphorylation level of ERK (ERK)	Effect of LY294002 (PI3K) on peptide-induced ERK phosphorylation (ERK)	Effect of PD98059 (MEK) on peptide-induced ERK phosphorylation (ERK)	Time of maximal ERK activation after stimulation (ERK) [min]	[Ca^2+]i rise (neutrophils)	[Ca^2+]i rise (Monocytes)	[Ca^2+]i rise (U937 cells)	[Ca^2+]i rise (Raw 264.7)	[Ca^2+]i rise (Jurkat cells)	[Ca^2+]i rise (3Y1)	[Ca^2+]i rise (PC12)	[Ca^2+]i rise (NCI-H292)	[Ca^2+]i rise (HUVEC)	Effect of GF109203X (PKC) on peptide-induced ERK phosphorylation (ERK)
MKYYYM-NH2 [Peptide P24]	not for FPR	stimulate superoxide generation in a concentration-dependent manner; also recorded: most potent	34.2 ± 0.48	dramatic increase	partially blocked	–	5	resulted in a [Ca^2+]i rise	activated	activated	not activated	not activated	no response	no response	no response	no response	not by GF109203X
